The experiment addresses SREBP-2 (Homo sapiens (Human), UniProt Q12772). The experiment can be described thus: In vitro assay SREBP-2: PathHunter U2OS SREBP-2 Nuclear Translocation Cell Line, U18666A-stimulated. It is filed as cell-based. The following applies: PathHunter U2OS SREBP-2 nuclear translocation cells, U18666A 10 μM, overnight (16 hours).

pIC50: −log10 of the molar value.

In the case of `CON(C)C(=O)CC[C@@H](C)[C@H]1CC[C@H]2[C@@H]3CC=C4C[C@@H](O)CC[C@]4(C)[C@H]3CC[C@]12C` [Example 1, (R)-4-((3S,8S,9S,10R,13R,14S,17R)-3-hydroxy-10,13-dimethyl-2,3,4,7,8,9,10,11,12,13,14,15,16,17-tetradecahydro-1H-cyclopenta[a]phenanthren-17-yl)-N-methoxy-N-methylpentanamide], the pIC50 (usually the negative decadic logarithm of the IC50, by convention in mol/L) was more than 6.60.
As for `C[C@H](CCC(=O)N1CCNCC1)[C@H]1CC[C@H]2[C@@H]3CC=C4C[C@@H](O)CC[C@]4(C)[C@H]3CC[C@]12C` [Example 2, (R)-4-((3S,8S,9S,10R,13R,14S,17R)-3-hydroxy-10,13-dimethyl-2,3,4,7,8,9,10,11,12,13,14,15,16,17-tetradecahydro-1H-cyclopenta[a]phenanthren-17-yl)-1-(piperazin-1-yl) pentan-1-one], the figure is 6.00 to 6.60; as for `CC(=O)N1CCN(C(=O)CC[C@@H](C)[C@H]2CC[C@H]3[C@@H]4CC=C5C[C@@H](O)CC[C@]5(C)[C@H]4CC[C@]23C)CC1` [Example 3, (R)-1-(4-acetylpiperazin-1-yl)-4-((3S,8S,9S,10R,13R,14S,17R)-3-hydroxy-10,13-dimethyl-2,3,4,7,8,9,10,11,12,13,14,15,16,17-tetradecahydro-1H-cyclopenta[a]phenanthren-17-yl)pentan-1-one], more than 6.60; as for `C[C@H](CCC(=O)N1CCN(C(N)=O)CC1)[C@H]1CC[C@H]2[C@@H]3CC=C4C[C@@H](O)CC[C@]4(C)[C@H]3CC[C@]12C` [Example 4, 4—((R)-4-((3S,8S,9S,10R,13R,14S,17R)-3-hydroxy-10,13-dimethyl-2,3,4,7,8,9,10,11,12,13,14,15,16,17-tetradecahydro-1H-cyclopenta[a]phenanthren-17-yl)pentanoyl)piperazine-1-carboxamide], more than 6.60.
`C[C@H](CCC(=O)N1CCOCC1)[C@H]1CC[C@H]2[C@@H]3CC=C4C[C@@H](O)CC[C@]4(C)[C@H]3CC[C@]12C` [Example 7, (R)-4-((3S,8S,9S,10R,13R,14S,17R)-3-hydroxy-10,13-dimethyl-2,3,4,7,8,9,10,11,12,13,14,15,16,17-tetradecahydro-1H-cyclopenta[a]phenanthren-17-yl)-1-morpholinopentan-1-one] had a pIC50 of more than 6.60.
As for `C[C@H](CC[C@](O)(C1CCC1)C(F)(F)F)[C@H]1CC[C@H]2[C@@H]3CC=C4C[C@@H](O)CC[C@]4(C)[C@H]3CC[C@]12C` [Example 25, (3S,8S,9S,10R,13R,14S,17R)-17-((2R,5S)-5-cyclobutyl-6,6,6-trifluoro-5-hydroxyhexan-2-yl)-10,13-dimethyl-2,3,4,7,8,9,10,11,12,13,14,15,16,17-tetradecahydro-1H-cyclopenta[a]phenanthren-3-ol], the figure is 6.00 to 6.60; as for `C[C@H](CCC(=O)N(C)OCCCC(F)(F)F)[C@H]1CC[C@H]2[C@@H]3CC=C4C[C@@H](O)CC[C@]4(C)[C@H]3CC[C@]12C` [Example 32, (R)-4-((3S,8S,9S,10R,13R,14S,17R)-3-hydroxy-10,13-dimethyl-2,3,4,7,8,9,10,11,12,13,14,15,16,17-tetradecahydro-1H-cyclopenta[a]phenanthren-17-yl)-N-methyl-N-(4,4,4-trifluorobutoxy)pentanamide], 6.00 to 6.60; as for `C[C@H](OC(=O)C(=O)N(C)C)[C@H]1CC[C@H]2[C@@H]3CC=C4C[C@@H](O)CC[C@]4(C)[C@H]3CC[C@]12C` [Example 35, (S)-1-((3S,8S,9S,10R,13S,14S,17S)-3-hydroxy-10,13-dimethyl-2,3,4,7,8,9,10,11,12,13,14,15,16,17-tetradecahydro-1H-cyclopenta[a]phenanthren-17-yl)ethyl 2-(dimethylamino)-2-oxoacetate], 6.00 to 6.60.
As for `CON(C(=O)CC[C@@H](C)[C@H]1CC[C@H]2[C@@H]3CC=C4C[C@@H](O)CC[C@]4(C)[C@H]3CC[C@]12C)C1CC1` [Example 36, (R)—N-cyclopropyl-4-((3S,8S,9S,10R,13R,14S,17R)-3-hydroxy-10,13-dimethyl-2,3,4,7,8,9,10,11,12,13,14,15,16,17-tetradecahydro-1H-cyclopenta[a]phenanthren-17-yl)-N-methoxypentanamide], the figure is 6.00 to 6.60.
The same measure for `C[C@H](CCC(=O)N1CC[C@H](CO)O1)[C@H]1CC[C@H]2[C@@H]3CC=C4C[C@@H](O)CC[C@]4(C)[C@H]3CC[C@]12C` [Example 43, (R)-4-((3S,8S,9S,10R,13R,14S,17R)-3-hydroxy-10,13-dimethyl-2,3,4,7,8,9,10,11,12,13,14,15,16,17-tetradecahydro-1H-cyclopenta[a]phenanthren-17-yl)-1-((R)-5-(hydroxymethyl)isoxazolidin-2-yl)pentan-1-one]: 6.00 to 6.60.
In turn, `C=CCN1C[C@H]2CON(C(=O)CC[C@@H](C)[C@H]3CC[C@H]4[C@@H]5CC=C6C[C@@H](O)CC[C@]6(C)[C@H]5CC[C@]34C)[C@H]2C1` [Example 45, (R)-1-((3aR,6aR)-5-allylhexahydro-1H-pyrrolo[3,4-c]isoxazol-1-yl)-4-((3S,8S,9S,10R,13R,14S,17R)-3-hydroxy-10,13-dimethyl-2,3,4,7,8,9,10,11,12,13,14,15,16,17-tetradecahydro-1H-cyclopenta[a]phenanthren-17-yl)pentan-1-one] gave a negative logarithm of the IC50 (pIC50) of 6.00 to 6.60.
The same measure for `CC[C@H]1NC[C@@H]2CON(C(=O)CC[C@@H](C)[C@H]3CC[C@H]4[C@@H]5CC=C6C[C@@H](O)CC[C@]6(C)[C@H]5CC[C@]34C)[C@@H]21` [Example 47, (R)-1-((3aS,6R,6aS)-6-ethylhexahydro-1H-pyrrolo[3,4-c]isoxazol-1-yl)-4-((3S,8S,9S,10R,13R,14S,17R)-3-hydroxy-10,13-dimethyl-2,3,4,7,8,9,10,11,12,13,14,15,16,17-tetradecahydro-1H-cyclopenta[a]phenanthren-17-yl)pentan-1-one]: 6.00 to 6.60; for `CC[C@@H]1NC[C@@H]2CON(C(=O)CC[C@@H](C)[C@H]3CC[C@H]4[C@@H]5CC=C6C[C@@H](O)CC[C@]6(C)[C@H]5CC[C@]34C)[C@@H]21` [Example 48, (R)-1-((3aS,6S,6aS)-6-ethylhexahydro-1H-pyrrolo[3,4-c]isoxazol-1-yl)-4-((3S,8S,9S,10R,13R,14S,17R)-3-hydroxy-10,13-dimethyl-2,3,4,7,8,9,10,11,12,13,14,15,16,17-tetradecahydro-1H-cyclopenta[a]phenanthren-17-yl)pentan-1-one]: 6.00 to 6.60.
The molecule `C[C@H](CCC(=O)N1OCCC[C@@H]1C)[C@H]1CC[C@H]2[C@@H]3CC=C4C[C@@H](O)CC[C@]4(C)[C@H]3CC[C@]12C` [Example 74, (R)-4-((3S,8S,9S,10R,13R,14S,17R)-3-hydroxy-10,13-dimethyl-2,3,4,7,8,9,10,11,12,13,14,15,16,17-tetradecahydro-1H-cyclopenta[a]phenanthren-17-yl)-1-((S)-3-methyl-1,2-oxazinan-2-yl)pentan-1-one] showed a pIC50 of more than 6.60.
As to `CC#CC1(O)CCN(C(=O)CC[C@@H](C)[C@H]2CC[C@H]3[C@@H]4CC=C5C[C@@H](O)CC[C@]5(C)[C@H]4CC[C@]23C)CC1` [Example 90, (R)-4-((3S,8S,9S,10R,13R,14S,17R)-3-hydroxy-10,13-dimethyl-2,3,4,7,8,9,10,11,12,13,14,15,16,17-tetradecahydro-1H-cyclopenta[a]phenanthren-17-yl)-1-(4-hydroxy-4-(prop-1-yn-1-yl)piperidin-1-yl)pentan-1-one], the pIC50 is more than 6.60.
As for `CCCCC1(O)CCN(C(=O)CC[C@@H](C)[C@H]2CC[C@H]3[C@@H]4CC=C5C[C@@H](O)CC[C@]5(C)[C@H]4CC[C@]23C)CC1` [Example 92, (R)-1-(4-butyl-4-hydroxypiperidin-1-yl)-4-((3S,8S,9S,10R,13R,14S,17R)-3-hydroxy-10,13-dimethyl-2,3,4,7,8,9,10,11,12,13,14,15,16,17-tetradecahydro-1H-cyclopenta[a]phenanthren-17-yl)pentan-1-one], the figure is more than 6.60; as for `CC(C)CC1(O)CCN(C(=O)CC[C@@H](C)[C@H]2CC[C@H]3[C@@H]4CC=C5C[C@@H](O)CC[C@]5(C)[C@H]4CC[C@]23C)CC1` [Example 93, (R)-4-((3S,8S,9S,10R,13R,14S,17R)-3-hydroxy-10,13-dimethyl-2,3,4,7,8,9,10,11,12,13,14,15,16,17-tetradecahydro-1H-cyclopenta[a]phenanthren-17-yl)-1-(4-hydroxy-4-isobutylpiperidin-1-yl) pentan-1-one], more than 6.60.
The same measure for `C[C@H](CCC(=O)NCC(=O)O)[C@H]1CC[C@H]2[C@@H]3CC=C4C[C@@H](O)CC[C@]4(C)[C@H]3CC[C@]12C` [Example 107, ((R)-4-((3S,8S,9S,10R,13R,14S,17R)-3-hydroxy-10,13-dimethyl-2,3,4,7,8,9,10,11,12,13,14,15,16,17-tetradecahydro-1H-cyclopenta[a]phenanthren-17-yl)pentanoyl)glycine]: less than 5.00; for `C[C@H](CCC(=O)N(C)CC(=O)O)[C@H]1CC[C@H]2[C@@H]3CC=C4C[C@@H](O)CC[C@]4(C)[C@H]3CC[C@]12C` [Example 108, N—((R)-4-((3S,8S,9S,10R,13R,14S,17R)-3-hydroxy-10,13-dimethyl-2,3,4,7,8,9,10,11,12,13,14,15,16,17-tetradecahydro-1H-cyclopenta[a]phenanthren-17-yl)pentanoyl)-N-methylglycine]: less than 5.00.
Take `CCN(CC(=O)O)C(=O)CC[C@@H](C)[C@H]1CC[C@H]2[C@@H]3CC=C4C[C@@H](O)CC[C@]4(C)[C@H]3CC[C@]12C` [Example 109, N-ethyl-N—((R)-4-((3S,8S,9S,10R,13R,14S,17R)-3-hydroxy-10,13-dimethyl-2,3,4,7,8,9,10,11,12,13,14,15,16,17-tetradecahydro-1H-cyclopenta[a]phenanthren-17-yl)pentanoyl)glycine]: the pIC50 was less than 5.00.

(Values after US20230340011A1 (Asteroid Therapeutics, priority 2022, published 2023).)
